US20240261302A1, “METHODS OF TREATING NEURODEGENERATIVE DISEASES OR CONDITIONS” (FloraScience Inc., priority 2023, published 2024)

How the values were obtained:
[1] = tested on: SH-SY5Y neuroblastoma cells; experiment: Mitochondrial Membrane Potential Assay (JC-10) in SH-SY5Y cells; format: cell-based; conditions: 4 hr
Method: SH-SY5Y neuroblastoma cells were cultured in 1:1 (v/v) DMEM/F12 medium (Invitrogen, Cat #11330032, Carlsbad, CA) supplemented with 1% non-essential amino acids (Invitrogen, Cat #11140050), 10% FBS, and 1% antibiotics including penicillin and streptomycin. Cell cultures were incubated at 37° C. in a fully humidified atmosphere containing 10% CO2.
Mitochondrial Membrane Potential Assay. Cells seeded at 5,000 cells/well onto 96-well black walled plates were treated with test compounds at the desired concentrations under the culture condition described above. The mitochondrial uncoupler FCCP at 2 μM was used as a reference control. After the desired treatments for 4 hr, the cells were subjected to a JC-10 mitochondrial membrane potential assay according to the manufacturer's instruction. Fluorescence intensities (Ex/Em=490/525 nm, and Ex/Em=540/590 nm) of each well were monitored on a SpectraMax M5 microplate reader. The ratio of fluorescence intensity (590/525 nm) was used to determine the mitochondrial membrane potential (ΔΨm). Decreasing ratios indicate mitochondrial membrane depolarization. Samples were analyzed in eight to sixteen wells per independent experiment (n=8-16). Results were verified by live-cell imaging under a fluorescence microscope.

HT22 cells [2] = experiment: Seahorse XF Analysis (mitochondrial stress test) in HT22 cells; format: cell-based, mouse
Method: Seahorse XF Analysis. The assay procedure was previously described. Cellular oxygen consumption rates (OCR) were assayed with a XF Cell Mito Stress Test Kit using a Seahorse XFe96 Extracellular Flux Analyzer (Seahorse Bioscience, North Billerica, MA). Complete Seahorse XF DMEM assay medium was supplemented with 10 mM glucose, 1 mM pyruvate and 2 mM L-glutamine, at pH 7.4. Mitochondrial ETC inhibitors were used at the following concentrations: 1.5 μM oligomycin, 2 μM FCCP, and 0.5 μM of a 1:1 mixture of rotenone and antimycin A. Analyses were conducted using Wave software and XF Report Generators (Agilent Technologies). The sensor cartridge for the XFe analyzer was hydrated overnight at 37° C. before the experiment. OCR data were normalized for total protein/well. Each condition was analyzed in 20-40 wells per independent experiment (n=20-40).
For HT22 cells, 3,000 cells/well were seeded onto the Seahorse XFe96 plates under normal culture condition as described above. The next day, cells were pretreated with CBN at the desired concentrations for 1 hr followed by addition of RSL3 (50 nM) and coincubation for 16 hr. Immediately before the assay, the culture medium in the plates was replaced with complete Seahorse XF DMEM assay medium. The plates were incubated for 1 hr at 37° C. prior to the XF Cell Mito Stress tests according to the manufacturer's instructions.

HT22 cells [3] = experiment: Oxytosis/ferroptosis assay with erastin (Table 2); format: cell-based; conditions: Mus musculus, HT-22; erastin as inducer; method not given; read-out: Observed EC50 erastin
[4] = Iron (Fe^2+) Binding Assay (ferrozine method); conditions: 5 to 10 μM, compared to deferiprone 5 μM
Method: Iron (Fe^2+) Binding Assay. Ferrous iron binding was measured by the ferrozine method. Briefly, test samples at the desired concentrations were mixed with 5 μM ferrous sulfate (FeSO4) in 100 μL of 50 mM HEPES, pH 7.5 in a 96-well plate. After 2 min, 50 μL of 5 mM ferrozine was added and the optical absorbance at 562 nm was measured on a SpectraMax M5 microplate reader. Each sample was analyzed in eight wells per independent experiment (n=8). Iron binding capacities were presented as the percentage of the vehicle controls without (100%) or with iron (0%).

CB1/CB2 receptors = conditions: cited from earlier work
HT22 cells [5] = experiment: Ferroptosis Assay (RSL3-induced cell death, MTT); format: cell-based, mouse; conditions: for EC50: Mus musculus, HT-22, MTT
Method: Ferroptosis Assay: HT22 cells were seeded at 3,000 cells/well in 96-well tissue culture plates in DMEM plus 10% FBS and 1% antibiotics. After 24 hr of plating, the cells were pretreated with different concentrations of test compounds or a vehicle control for 1 hr followed by coincubation with 50 nM RSL3 to induce the cell death cascade. After 16 hr of treatment, cell viability was measured by the MTT assay. Optical absorbance was measured at 570 nm on a SpectraMax M5 microplate reader. Samples were analyzed in eight to sixteen wells per independent experiment (n=8-16). Results were presented as the percentage of the controls with vehicle alone.

[6] = Cell-free, liposome-based assay of lipid peroxidation (STY-BODIPY); format: biochemical; conditions: test compounds 10 μM
Method: For the cell-free, liposome-based assay, STY-BODIPY (1.5 μM) and liposomes of egg-PC (1 mM) (Avanti Polar Lipids Inc, Cat #840051P, AL) in TBS (pH 7.4) were added to an opaque 96-well plate. This was followed by the addition of test compounds (10 μM). The plate was incubated for 30 min at 37° C. and then vigorously mixed for 5 min. The autoxidation was initiated by the addition of V-70 (0.5 mM) (Fujifilm Wako, Cat #001-70078, Japan), followed by additional mixing for 5 min. Data were acquired at Ex/Em=488/518 nm every 15 min at 37° C. on a SpectraMax M5 microplate reader. Data were transformed into [ox-STY-BODIPY] by taking the raw fluorescent values of the saturated curve of control DMSO and dividing them by the initial concentration of reduced STY-BODIPY ([…]). Samples were analyzed in quadruplicate in four independent experiments (n=4).

With CCCCCc1cc(O)c2c(c1)OC(C)(C)c1ccc(C)cc1-2 [CBN, 6,6,9-Trimethyl-3-pentyl-benzo[c]chromen-1-ol] the “decrease of ΔΨm” value [1] was “also observed”, the “ATP production, compound alone” value (HT22 cells [2]; 10 μM) was “partially reduced ATP production” and the “basal and maximal mitochondrial respiration, compound alone” value (HT22 cells [2]; 10 μM) was “partially decreased both basal and maximal mitochondrial respiration”. For the same molecule, the “mitochondrial respiration and ATP production with RSL3” value (HT22 cells [2]; 10 μM pretreatment, RSL3 50 nM 16 hr) was “maintenance of mitochondrial respiration and ATP production”, the EC50 (HT22 cells [3]) was 2500 nM and the “Fe^2+ binding” value [4] was “did not show significant Fe^2+ binding”. The “activity at CB1/CB2 receptors” value (CB1/CB2 receptors) was “weak agonist”, the “binding affinities compared to THC, fold lower” value (CB1/CB2 receptors; tissue- or cell-type specific) was 10 to 100 fold and the RSL3-induced morphological changes (HT22 cells [5]; 5 μM pretreatment 1 hr, then 50 nM RSL3 16 hr) was “effectively prevented”. The “neuroprotection against 50 nM RSL3” value (HT22 cells [5]; HT22 cells, CBN 10 μM, data not shown) was about 100%, the EC50 (HT22 cells [5]; HT22 cells, 1 hr pretreatment, 50 nM RSL3, 16 hr, read-out: Observed EC50 RSL3) was 390 nM and the EC50 (HT22 cells [5]; HT22 cells, 16 hr, read-out: EC50 against oxytosis/ferroptosis induced by 50 nM RSL3 (FIG. 2H)) was 690 nM. The “inhibition of lipid peroxidation, cell-free” value [6] was “showed no inhibition”.
